# Experimental data taken from paper PMC8141073, “Structurally Diverse Sesquiterpenoids with Anti-neuroinflammatory Activity from the Endolichenic Fungus Cryptomarasmius aucubae” (Natural Products and Bioprospecting, 2021).
# How the values were obtained:
# [1] = test system: NO production induced by LPS in BV-2 microglial cells; test: Nitric oxide (NO) production inhibitory assay (Griess reaction); type: cell-based, murine; conditions: for anti-inflammatory activity (reducing the release of NO), in words / inhibition at 20 µM: LPS-induced BV-2 microglial cells; for IC50 / inhibition at 20 µM: Mus musculus; for IC50: LPS (1 μg/mL)-induced BV-2 microglial cells, 24 h, 0.1–20.0 μM, read-out: IC50, inhibition of NO production
# Protocol: BV-2 cells were seeded into 96-well plates at 2 × 10^4 cells/100 μL of medium and incubated for 24 h. Then, cells were treated with 1 μg/mL of lipopolysaccharide (LPS) and various concentrations (0.1–20.0 μM) of test compounds (DMSO as solvent) for 24 h. An equal amount of DMSO and LPS were served as the controls; quercetin (J&K Scientific, Beijing, China) was taken as the positive control). The NO concentration in the medium was measured by using a Nitric Oxide Assay Kit, according to the accumulated levels of nitrite in the supernatants by a standard Griess reaction. As follows, 50 μL of the culture supernatant of BV-2 cells was reacted with 50 μL of Griess reagent I and Griess regent II successively in a 96-well plate. The absorbance at 570 nm of the mixture was measured using a microplate reader. IC50 values were calculated as the concentrations that reduced NO production by 50%. Quercetin was taken as the positive control.
# [2] = Cell viability by MTT assay; type: cell-based, murine; conditions: mouse, BV-2 microglial cells, percentage of the LPS-only treatment group, compounds at 20 μM, 1 μg/mL LPS, BV-2 cells
# Protocol: BV-2 murine microglial cells, acquired from Peking Union Medical College Cell Bank, were cultured in Dulbecco’s modified Eagle’s medium supplemented with 10% (v/v) heat-inactivated fetal bovine serum, penicillin (100 U/mL), and streptomycin ([…]) in carbon dioxide cell incubator. When cell growth density outnumbered 90%, BV-2 cells were seeded in 96-well plates at a density of 2 × 10^4/well, 100 μL) and incubated for 24 h. Next, the cells were treated with the compounds (DMSO as solvent) at 20 μM for 24 h in DMEM with 1 μg/mL LPS. Cells treated with DMSO alone were used as the negative control. After adding 20 μL of 10 mg/mL MTT reagent to each well, the samples were shaken lightly and incubated at 37 °C for 4 h. The supernatant was removed, the blue-purple crystals were fully dissolved in DMSO (200 μL), and the absorbance of each well was read at 570 nm (Tecan Sunrise, Switzerland). Percentage of cell viability is calculated as: (absorbance of treated well/absorbance of control well) × 100%.
SMILES,IC50 [1],"anti-inflammatory activity (reducing the release of NO), in words [1]",inhibition at 20 µM [1],"viability at 24 h, 20 µM [2]"
"CC(=O)O[C@@]12CC[C@]1(C)C[C@H]1C[C@@](C)(CO)CC1=C2C [Compound 5, sterpurol B]",9.06 ± 1.13 µM,significant anti-inflammatory activity,99.3%,107 ± 2.73%
"CC1=C2C[C@@](C)(C(=O)O)C[C@H]2C[C@](C)(O)C12CC2 [Compound 6, paneolilludinic acid]",11.5 ± 0.58 µM,moderate anti-inflammatory activity,79.1%,104 ± 2.67%
"C/C(=C\CO)CC/C=C(\C)CC[C@@H](O)C(C)(C)O [Compound 8, (–)-10,11-dihydroxyfarnesol]",12.2 ± 0.4 µM,moderate anti-inflammatory activity,76.8%,99.12 ± 0.18%

# Continued, in another order:
IC50 [1],SMILES,"anti-inflammatory activity (reducing the release of NO), in words [1]",inhibition at 20 µM [1],"viability at 24 h, 20 µM [2]"
14.8 ± 2.23 µM,"CC(=O)OCC1(C)CC2=C(C)C3(OC(C)=O)CCC3(C)CC2C1 (centres unmarked) [Compound 1, sterpurol D]",moderate anti-inflammatory activity,75.9%,103 ± 4.73%
9.93 ± 0.99 µM,"CC(=O)O[C@@]12C[C@H](O)[C@]1(C)C[C@H]1C[C@@](C)(CO)CC1=C2C [Compound 2, sterpurol E]",moderate anti-inflammatory activity,85.4%,97.1 ± 4%
15.3 ± 1.43 µM,"CC1=C2C[C@](C)(CO)C[C@@H]2C[C@@]2(C)CC[C@@]12O [Compound 4, sterpurol A]",moderate anti-inflammatory activity,73.1%,98.7 ± 1.18%
> 20 µM,"CC1=CC2C(C[C@H]1O)[C@@](C)(O)CC[C@H]2C(C)C (stereo partly drawn) [Compound 7, murolane-2α, 9β-diol-3-ene]",,51.7%,
9.75 ± 0.79 µM,"O=c1c(O)c(-c2ccc(O)c(O)c2)oc2cc(O)cc(O)c12 [Quercetin, quercetin, reference compound]",,95.6%,101.5 ± 0.83%
